Experimental data from publication PMC4027214 (2014).

Key:
[1] = system: TFF1-ERE (DNA, duplex) AGGTCACGGTGGCCA/TGGCCACCGTGACCT; experiment: fluorescent intercalator displacement (FID); settings: 5 mM sodium phosphate (Na+); pH 7, 25 °C; ethidium bromide displaced; DNA 16.7 μM; fit assumes KD1 = KD2; apparent
[2] = system: TFF1-ERE (DNA, duplex) AGGTCACGGTGGCCA/TGGCCACCGTGACCT; experiment: NMR titration and solution structure; settings: 50 mM sodium phosphate (Na+); pH 7, 25 °C; bis-intercalation, each drug one strong and one weak intercalation site

KD [1]: ~ 9.65 × 10^−7 M
binding [2]: yes
SMILES: Cc1cccc2nc3cccc(C(=O)NCCNCCNCCNC(=O)c4cccc5nc6cccc(C)c6nc45)c3nc12
